Measured values as given in ChEMBL document CHEMBL6071150, “From lab to clinic: The discovery and optimization journey of PI3K inhibitors” (Eur J Med Chem, 2024).
One block for each molecule: values may come before it.

Tests used:
[1] = Cmax in SCID mouse at 3 mg/kg, iv measured upto 24 hrs by LC/MS-MS analysis; format: ADME, organism-based; conditions: in vivo
[2] = AUC (0 to t) in SCID mouse at 3 mg/kg, iv; format: ADME, organism-based; conditions: in vivo
[3] = Volume of distribution at steady state in mouse at 3 mg/kg, iv; format: ADME, organism-based; conditions: in vivo
[4] = Oral bioavailability in mouse at 3 mg/kg by LC-MS/MS analysis; format: ADME, organism-based; conditions: in vivo
[5] = Oral bioavailability in rat at 3 mg/kg by LC-MS/MS analysis; format: ADME, organism-based; conditions: in vivo
[6] = Oral bioavailability in Beagle dog at 3 mg/kg by LC-MS/MS analysis; format: ADME, organism-based, Canis lupus familiaris; conditions: in vivo
[7] = Half life in SCID mouse at 3 mg/kg, po; format: ADME, organism-based; conditions: in vivo
[8] = Clearance in rat liver microsomes; format: ADME, Microsome
[9] = Cmax in mouse at 1 mg/kg, iv; format: ADME, organism-based; conditions: in vivo
[10] = Cmax in rat at 3.4 mg/kg, po; format: ADME, organism-based; conditions: in vivo
[11] = Oral bioavailability in human; format: ADME, organism-based; conditions: in vivo
[12] = Intrinsic clearance in rat liver microsomes; format: ADME, Microsome; conditions: read-out: CLH (converted)
MCF7 = assay: cells; conditions: Homo sapiens, MCF7, 96 h
[13] = Half life in monkey; format: ADME, Macaca mulatta; conditions: rhesus monkey, in vivo
[14] = Metabolic stability in mouse liver microsomes assessed as half life; format: ADME, Microsome
Cytochrome P450 3A4 = Cytochrome P450 3A4 (Homo sapiens, UniProt P08684); assay: Inhibition of CYP3A4 (unknown origin); format: ADME
[15] = biological target: Phosphatidylinositol 4,5-bisphosphate 3-kinase catalytic subunit alpha isoform (Homo sapiens, UniProt P42336); assay: Inhibition of GST-tagged human recombinant PI3K-p110alpha extracted from baculovirus-infected Sf9 insect cells incubated for 1 hr by microbeta counter analysis
CYP450 = CYP450 (Homo sapiens, UniProt P04798+P05177+P05181+P08684+P10632+P10635+P11509+P11712+P13584+P20813+P20815+P20853+P24462+P24903+P33260+P33261+P51589+P78329+P98187+Q02928+Q08477+Q16678+Q16696+Q5TCH4+Q6VVX0+Q7Z449+Q8TAV3+Q96SQ9+Q9HB55); assay: Inhibition of CYP450 (unknown origin); format: ADME, protein assay
[16] = Oral bioavailability in mouse at 1 mg/kg; format: ADME, organism-based; conditions: in vivo
[17] = Oral bioavailability in rat at 1 mg/kg; format: ADME, organism-based; conditions: in vivo
[18] = Oral bioavailability in mouse; format: ADME, organism-based; conditions: in vivo
[19] = Oral bioavailability in Dog; format: ADME, organism-based, Canis lupus familiaris; conditions: in vivo
[20] = Clearance in mouse at 1 mg/kg, iv; format: ADME, organism-based; conditions: in vivo
[21] = Volume of distribution at steady state in mouse at 1 mg/kg, iv; format: ADME, organism-based; conditions: in vivo, read-out: Vdss
[22] = Cmax in mouse plasma at 5 mg/kg, po; format: ADME, organism-based
[23] = Cmax in mouse plasma at 50 mg/kg, po; format: ADME, organism-based
[24] = AUC in mouse plasma at 5 mg/kg, po; format: ADME, organism-based; conditions: in vivo
[25] = AUC in mouse plasma at 50 mg/kg, po; format: ADME, organism-based; conditions: in vivo
[26] = Oral bioavailability in mouse plasma at 5 mg/kg by LC-MS/MS analysis; format: ADME, organism-based
[27] = Oral bioavailability in mouse plasma at 50 mg/kg by LC-MS/MS analysis; format: ADME, organism-based
[28] = Plasma protein binding in mouse; format: ADME, cell-free; conditions: read-out: PPB (converted)

Cytochrome P450 3A4, sequence (P08684 whole entry, canonical isoform): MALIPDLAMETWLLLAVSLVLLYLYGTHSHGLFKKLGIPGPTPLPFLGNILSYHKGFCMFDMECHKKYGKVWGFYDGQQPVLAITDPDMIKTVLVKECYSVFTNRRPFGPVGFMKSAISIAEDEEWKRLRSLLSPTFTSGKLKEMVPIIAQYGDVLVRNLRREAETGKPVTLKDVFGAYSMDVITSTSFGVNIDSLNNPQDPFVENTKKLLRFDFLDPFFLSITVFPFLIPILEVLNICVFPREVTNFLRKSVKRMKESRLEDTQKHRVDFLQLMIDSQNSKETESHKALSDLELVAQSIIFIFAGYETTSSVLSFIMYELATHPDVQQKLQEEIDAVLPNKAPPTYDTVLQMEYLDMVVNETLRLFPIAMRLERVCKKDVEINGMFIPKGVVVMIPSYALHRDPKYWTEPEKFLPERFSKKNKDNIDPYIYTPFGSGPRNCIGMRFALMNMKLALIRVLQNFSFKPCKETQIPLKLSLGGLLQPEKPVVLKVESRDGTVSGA
Phosphatidylinositol 4,5-bisphosphate 3-kinase catalytic subunit alpha isoform, sequence (P42336 whole entry, canonical isoform): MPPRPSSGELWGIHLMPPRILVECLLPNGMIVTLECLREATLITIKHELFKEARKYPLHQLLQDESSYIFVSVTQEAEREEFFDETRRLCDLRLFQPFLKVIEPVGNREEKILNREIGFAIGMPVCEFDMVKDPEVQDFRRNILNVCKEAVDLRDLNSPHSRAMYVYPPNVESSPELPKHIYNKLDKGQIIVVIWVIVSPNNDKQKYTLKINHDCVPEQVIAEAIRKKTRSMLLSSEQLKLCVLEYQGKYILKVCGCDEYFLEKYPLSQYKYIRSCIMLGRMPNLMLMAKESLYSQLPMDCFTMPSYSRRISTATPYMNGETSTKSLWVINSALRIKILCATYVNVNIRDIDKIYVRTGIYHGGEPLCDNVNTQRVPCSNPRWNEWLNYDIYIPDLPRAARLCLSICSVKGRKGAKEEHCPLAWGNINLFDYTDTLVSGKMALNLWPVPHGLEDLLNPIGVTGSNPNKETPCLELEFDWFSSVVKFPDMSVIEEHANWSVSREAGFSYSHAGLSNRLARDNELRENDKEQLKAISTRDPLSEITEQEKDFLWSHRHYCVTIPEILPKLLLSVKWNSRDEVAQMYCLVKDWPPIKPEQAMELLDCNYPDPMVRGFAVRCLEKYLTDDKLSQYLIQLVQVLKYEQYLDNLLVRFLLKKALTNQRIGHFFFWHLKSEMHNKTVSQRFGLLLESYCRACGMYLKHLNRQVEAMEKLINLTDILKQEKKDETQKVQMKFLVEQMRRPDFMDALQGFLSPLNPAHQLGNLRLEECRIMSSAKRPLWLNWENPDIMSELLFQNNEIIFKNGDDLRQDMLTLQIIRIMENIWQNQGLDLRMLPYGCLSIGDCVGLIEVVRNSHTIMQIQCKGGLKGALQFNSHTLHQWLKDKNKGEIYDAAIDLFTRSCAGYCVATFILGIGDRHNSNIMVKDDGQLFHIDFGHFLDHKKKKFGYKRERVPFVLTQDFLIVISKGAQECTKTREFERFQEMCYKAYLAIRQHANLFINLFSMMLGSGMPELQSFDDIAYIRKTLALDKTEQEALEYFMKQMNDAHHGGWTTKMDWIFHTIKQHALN

Cmax [1]: 1870 ng/mL | AUCt [2]: 600 h/ng/mL | Vdss [3]: 1 L/kg | bioavailability [4]: 30% | bioavailability [5]: 70% | bioavailability [6]: 67% | half-life [7]: 1.4 h
Structure (SMILES): C[C@H]1Cc2ccccc2N1C(=O)Cc1nc(N2CCOCC2)cc(=O)[nH]1 [SAR-260301]

CLH [8]: 29 µL/min/µg | Cmax [9]: 520 nM | Cmax [10]: 190 nM
Structure (SMILES): Cc1nc(NC(=O)N2CCC[C@H]2C(N)=O)sc1-c1ccnc(C(C)(C)C(F)(F)F)c1 [ALPELISIB]

bioavailability [11]: 54% | CLint scaled [12]: 5.67 mL/min/kg
Structure (SMILES): C[C@H](Nc1ncnc2[nH]cnc12)c1cc2ccc(F)cc2nc1-c1ccccn1 [AMG-319]

IC50 (MCF7): 255 nM
Structure (SMILES): Cc1c(CN2CCN(C(=O)[C@H](C)O)CC2)sc2c(N3CCOCC3)nc(-c3cnc(N)nc3)nc12 [APITOLISIB]

half-life [13]: 4.3 h | half-life [14]: > 6 h | IC50 (Cytochrome P450 3A4): > 20000 nM
Structure (SMILES): C[C@H](NC(=O)c1c(N)nn2cccnc12)c1cc2cccc(C#Cc3cnn(C)c3)c2c(=O)n1-c1ccccc1 [EGANELISIB]

IC50 (MCF7): 356 nM
Structure (SMILES): Cc1c(CN2CCN(C(=O)[C@@H](C)O)CC2)sc2c(N3CCOCC3)nc(-c3cnc(N)nc3)nc12

IC50 [15]: 7.5 nM | CLH [8]: 62 µL/min/µg | IC50 (CYP450): > 10000 nM
Structure (SMILES): Cc1nc(NC(=O)N2CCC[C@H]2C(N)=O)sc1-c1ccnc(Nc2ccccc2C(C)(C)C)n1

bioavailability [16]: 75% | bioavailability [17]: 77%
Structure (SMILES): CC1(C)OCCn2c1nc1c(N3CCOCC3)nc(-c3cnc(N)nc3)nc12 [PAXALISIB]

bioavailability [18]: 100% | bioavailability [19]: 80%
Structure (SMILES): COc1ncc(-c2ccc3nccc(-c4ccnnc4)c3c2)cc1NS(=O)(=O)c1ccc(F)cc1F [OMIPALISIB]

clearance [20]: 9.2 mL/min/kg | Vd [21]: 1.7 L/kg | Cmax [22]: 2000 nM | Cmax [23]: 24000 nM | AUC [24]: 10 µM·h | AUC [25]: 121 µM·h | bioavailability [26]: 56% | bioavailability [27]: 66% | fraction unbound [28]: 0.29
Structure (SMILES): C[C@H](NC(=O)c1c(N)ccc2cccnc12)c1cc2cccc(Cl)c2c(=O)n1-c1ccccc1
